Measurements reported in PMC3566858 (Beilstein Journal of Organic Chemistry, 2013).
Marks after values point to notes of the source that are not given here.

What was measured:
[1] = system: T. cruzi parasites in J774 macrophage host cells; test: Minimum trypanocidal concentration (MTC) assay; assay type: cell-based, Trypanosoma cruzi
[2] = system: T. cruzi parasites in C2C12 host cells; test: High-content imaging-based screening (HCS) assay; assay type: cell-based; conditions: Trypanosoma cruzi; reduces parasite load in C2C12 cells by 90% relative to untreated controls; read-out: T. cruzi growth inhibition HCS EC90
cruzain = cruzain (Trypanosoma cruzi, UniProt P25779); test: biochemical; conditions: for IC50: kinact/Ki, read-out: cruzain activity (n.a. = not active)
[3] = system: TcCYP51 (ergosterol biosynthesis) in intracellular T. cruzi parasites; test: Ergosterol biosynthesis / sterol composition of intracellular T. cruzi by GC/MS; assay type: cell-based, Trypanosoma cruzi; design: key to TcCYP51 cellular activity (Y/N): Y: Compound affects ergosterol biosynthesis at indicated concentration as determined by GC/MS analysis; cellular activity (Y/N, conc.); conditions: for effect on sterol (lipid) composition of intracellular T. cruzi: concentrations below MTC
[4] = target: T1, ≈35 kDa host-cell protein (cathepsin B) (Mus musculus, UniProt P10605); test: Competitive labeling of host cell (C2C12) proteins with probe 9; assay type: cell-based; conditions: C2C12 cells
T1 construct: endogenous in cells; host or cells: C2C12 mouse myoblasts
Experimental: The discovery of a potential mammalian off-target of probe 9 (and presumably also of 1) was of considerable interest, so we explored this finding further. To determine if this protein was also a target of 1 and 4, we conducted competition experiments in C2C12 cells. […]
Cellular labeling assay and “click” chemistry: C2C12 cells (1.5 × 10^6 cells) were pre-treated with competitor compounds in culture media (1 mL, DMEM with 10% FBS) for 1 hour at 37 °C.
Then additional competitor compound and 9 (2 µM) were added in culture media (1 mL), and the cells were incubated for an additional hour. The cells were then pelleted, washed with phosphate-buffered saline pH 7.4 (2 × 1 mL), and lysed with 1% SDS in phosphate-buffered saline (400 µL). The denatured lysates were sonicated to reduce viscosity, centrifuged to give pellets of the insoluble material, and normalized for total protein content. The normalized lysates (22 µL, 3 mg/mL) were mixed with TAMRA azide 10 (0.5 µL, 5 mM), TCEP (0.5 µL, 50 mM, pH ~7.0), TBTA ligand in 1:4 DMSO/t-butyl alcohol (1.5 µL, 1 mM), and CuSO4 (0.5 µL, 50 mM).
Reactions were incubated at room temperature for one hour and then resolved by SDS-PAGE.
The resulting gel was scanned for fluorescence (Typhoon Imaging System, Molecular Dynamics) and coomassie stained. […]

TcCYP51 = TcCYP51 (Trypanosoma cruzi, UniProt Q7Z1V1); test: biochemical; conditions: UV-vis binding assay; lower limit of KD ~5 nM; read-out: TcCYP51 activity in vitro KD
CYP1A2 = target: T2, CYP1A2 (Homo sapiens, UniProt P05177); test: Mammalian CYP inhibition panel, 1A2; assay type: in vitro ADME
T2 sequence (P05177 1-516): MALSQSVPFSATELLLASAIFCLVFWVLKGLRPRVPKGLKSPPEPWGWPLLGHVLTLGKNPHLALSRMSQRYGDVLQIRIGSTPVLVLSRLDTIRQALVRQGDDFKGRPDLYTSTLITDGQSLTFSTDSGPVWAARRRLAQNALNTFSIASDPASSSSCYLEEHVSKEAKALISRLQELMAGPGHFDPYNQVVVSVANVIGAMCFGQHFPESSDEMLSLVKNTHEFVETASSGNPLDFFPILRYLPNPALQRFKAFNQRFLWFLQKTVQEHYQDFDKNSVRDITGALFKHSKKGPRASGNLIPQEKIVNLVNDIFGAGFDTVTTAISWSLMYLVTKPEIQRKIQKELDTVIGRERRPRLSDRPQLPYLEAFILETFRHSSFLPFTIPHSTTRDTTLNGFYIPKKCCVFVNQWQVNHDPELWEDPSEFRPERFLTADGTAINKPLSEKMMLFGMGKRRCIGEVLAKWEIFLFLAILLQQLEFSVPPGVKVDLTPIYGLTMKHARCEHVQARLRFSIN

CYP3A4 [5] = target: T3, CYP3A4 (Homo sapiens, UniProt P08684); test: CYP reversibility study (pre-incubation with or without NADPH), 3A4; assay type: in vitro ADME
Experimental: Given the similar IC50 values for 1 and 4 against CYP3A4, we were curious to determine whether 4 is an irreversible inhibitor of this enzyme, as is the case for 1 [30].
(§1) CYP Inhibition and reversibility studies
(§2) Mammalian CYP inhibition values and reversibility studies were conducted by WuXi AppTech
(§3) (Tianjin, China 300457) according to standard protocols. […]

CYP2C19 [6] = target: T4, CYP2C19 (Homo sapiens, UniProt P33261); test: Mammalian CYP inhibition panel, 2C19; assay type: in vitro ADME
CYP2D6 = CYP2D6 (Homo sapiens, UniProt P10635); test: Mammalian CYP inhibition panel, 2D6; assay type: in vitro ADME
CYP2C9 = CYP2C9 (Homo sapiens, UniProt P11712); test: Mammalian CYP inhibition panel, 2C9; assay type: in vitro ADME
CYP2C19 [7] = target: T4, CYP2C19; test: CYP reversibility study (pre-incubation with or without NADPH), 2C19; assay type: in vitro ADME
Experimental: as §1, §2, §3

CYP3A4 [8] = target: T3, CYP3A4; test: Mammalian CYP inhibition panel, 3A4; assay type: in vitro ADME
[9] = system: CYP1A2, CYP2C9, CYP2C19, CYP2D6, CYP3A4 (average over the panel of mammalian CYP enzymes); test: Mammalian CYP inhibition panel, average over panel; assay type: in vitro ADME; conditions: human; average of 1A2, 2C9, 2C19, 2D6, 3A4; read-out: average IC50 across the CYP panel
[10] = clears J774 host cells of parasites at day 40, following 28 days of treatment
[11] = affects ergosterol biosynthesis at 2.0 μM
[12] = pretreatment with 10 μM for one hour
[13] = pre-incubation at either 1 μM or 10 μM for one hour
[14] = affects ergosterol biosynthesis at 0.1 μM

T3 sequence (P08684 whole entry): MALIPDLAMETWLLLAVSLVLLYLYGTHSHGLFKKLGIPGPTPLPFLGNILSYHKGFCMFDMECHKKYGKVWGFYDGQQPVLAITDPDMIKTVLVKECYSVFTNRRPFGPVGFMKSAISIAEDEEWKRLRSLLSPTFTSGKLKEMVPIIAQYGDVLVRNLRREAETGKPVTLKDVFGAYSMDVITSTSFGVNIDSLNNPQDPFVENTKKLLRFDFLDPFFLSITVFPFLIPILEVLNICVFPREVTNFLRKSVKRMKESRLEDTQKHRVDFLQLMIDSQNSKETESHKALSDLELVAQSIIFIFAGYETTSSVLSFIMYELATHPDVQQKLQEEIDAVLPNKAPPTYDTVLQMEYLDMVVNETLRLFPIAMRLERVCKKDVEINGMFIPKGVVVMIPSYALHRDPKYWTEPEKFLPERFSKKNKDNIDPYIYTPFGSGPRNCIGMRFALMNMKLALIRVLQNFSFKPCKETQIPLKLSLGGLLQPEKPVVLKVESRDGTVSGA
T1 sequence (P10605 80-333 limits assumed): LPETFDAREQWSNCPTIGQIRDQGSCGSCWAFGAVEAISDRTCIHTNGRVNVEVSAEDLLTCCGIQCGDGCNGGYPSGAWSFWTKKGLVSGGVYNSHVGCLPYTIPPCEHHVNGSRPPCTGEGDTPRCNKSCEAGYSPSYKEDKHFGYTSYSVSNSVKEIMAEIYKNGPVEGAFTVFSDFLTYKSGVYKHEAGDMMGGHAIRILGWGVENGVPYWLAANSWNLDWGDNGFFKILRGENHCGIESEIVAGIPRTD
Sequence of TcCYP51 (Q7Z1V1 whole entry): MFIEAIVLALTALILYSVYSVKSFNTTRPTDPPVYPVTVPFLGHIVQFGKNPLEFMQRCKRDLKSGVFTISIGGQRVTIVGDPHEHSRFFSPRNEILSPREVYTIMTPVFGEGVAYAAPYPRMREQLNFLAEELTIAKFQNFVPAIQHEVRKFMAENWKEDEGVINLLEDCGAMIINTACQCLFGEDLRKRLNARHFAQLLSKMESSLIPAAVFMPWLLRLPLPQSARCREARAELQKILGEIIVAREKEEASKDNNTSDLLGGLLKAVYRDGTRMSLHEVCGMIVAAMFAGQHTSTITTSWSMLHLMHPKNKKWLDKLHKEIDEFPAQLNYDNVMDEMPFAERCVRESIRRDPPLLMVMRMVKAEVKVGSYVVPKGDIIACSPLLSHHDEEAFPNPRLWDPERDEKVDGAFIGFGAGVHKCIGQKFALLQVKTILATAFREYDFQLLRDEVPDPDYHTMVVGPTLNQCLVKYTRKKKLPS
Sequence of cruzain (P25779 123-337 limits assumed): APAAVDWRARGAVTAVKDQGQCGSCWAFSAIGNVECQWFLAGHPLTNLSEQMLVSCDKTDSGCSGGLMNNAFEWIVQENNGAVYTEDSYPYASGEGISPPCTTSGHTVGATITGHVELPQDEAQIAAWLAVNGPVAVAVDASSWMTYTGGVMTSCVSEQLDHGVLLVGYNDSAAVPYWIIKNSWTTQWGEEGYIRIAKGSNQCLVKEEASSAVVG
T4 sequence (P33261 whole entry): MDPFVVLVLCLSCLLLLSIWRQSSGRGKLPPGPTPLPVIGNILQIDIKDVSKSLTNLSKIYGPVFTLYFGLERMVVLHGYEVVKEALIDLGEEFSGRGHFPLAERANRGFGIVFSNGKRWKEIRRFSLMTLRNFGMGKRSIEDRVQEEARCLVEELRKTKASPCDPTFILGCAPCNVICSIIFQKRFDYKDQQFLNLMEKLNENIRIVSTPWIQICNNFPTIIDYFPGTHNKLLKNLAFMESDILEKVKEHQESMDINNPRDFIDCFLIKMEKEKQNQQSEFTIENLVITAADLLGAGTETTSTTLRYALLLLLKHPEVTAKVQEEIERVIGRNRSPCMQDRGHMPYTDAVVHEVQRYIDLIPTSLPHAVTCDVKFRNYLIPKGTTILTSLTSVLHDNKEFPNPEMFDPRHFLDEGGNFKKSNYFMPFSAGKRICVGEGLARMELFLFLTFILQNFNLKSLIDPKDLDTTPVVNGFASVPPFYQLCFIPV
Sequence of CYP2D6 (P10635 whole entry): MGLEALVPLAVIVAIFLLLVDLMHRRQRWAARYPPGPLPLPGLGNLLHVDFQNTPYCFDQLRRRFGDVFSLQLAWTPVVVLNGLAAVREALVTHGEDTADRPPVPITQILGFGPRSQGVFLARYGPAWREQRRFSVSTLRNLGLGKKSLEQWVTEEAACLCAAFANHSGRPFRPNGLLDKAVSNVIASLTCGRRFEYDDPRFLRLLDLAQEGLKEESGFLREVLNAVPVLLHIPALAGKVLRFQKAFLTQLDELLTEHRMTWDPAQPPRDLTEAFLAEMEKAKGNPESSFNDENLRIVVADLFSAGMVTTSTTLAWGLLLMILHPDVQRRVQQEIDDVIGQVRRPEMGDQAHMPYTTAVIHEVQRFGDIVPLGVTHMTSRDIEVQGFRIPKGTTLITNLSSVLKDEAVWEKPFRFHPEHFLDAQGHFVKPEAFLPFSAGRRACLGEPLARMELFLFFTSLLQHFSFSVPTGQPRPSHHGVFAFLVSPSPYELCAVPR
Sequence of CYP2C9 (P11712 whole entry): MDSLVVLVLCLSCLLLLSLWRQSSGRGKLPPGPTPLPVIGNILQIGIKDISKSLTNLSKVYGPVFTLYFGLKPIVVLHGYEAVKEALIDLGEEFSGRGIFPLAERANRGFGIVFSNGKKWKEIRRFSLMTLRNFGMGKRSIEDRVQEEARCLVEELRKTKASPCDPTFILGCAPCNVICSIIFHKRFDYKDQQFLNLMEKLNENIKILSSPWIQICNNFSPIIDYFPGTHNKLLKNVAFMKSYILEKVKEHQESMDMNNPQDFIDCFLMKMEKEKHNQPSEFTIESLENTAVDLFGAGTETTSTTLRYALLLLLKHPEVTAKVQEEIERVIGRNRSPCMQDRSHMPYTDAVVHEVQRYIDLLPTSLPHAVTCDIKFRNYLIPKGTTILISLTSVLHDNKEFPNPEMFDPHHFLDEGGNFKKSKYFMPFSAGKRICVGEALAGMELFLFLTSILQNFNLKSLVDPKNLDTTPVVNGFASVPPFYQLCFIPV

Compound	kinact/KI (cruzain) [M⁻¹ s⁻¹]	Kd (TcCYP51) [nM]	IC50 (cruzain) [nM]	T. cruzi growth inhibition MTC [1, 10]	EC90 [2] [nM]	effect on sterol (lipid) composition of intracellular T. cruzi [3]	other results
O=C(Cn1ccnc1[N+](=O)[O-])NCc1ccccc1 [BNZ, benzindazole, reference compound]	–	–	–	10 µM	7200	–	–
CC1CCC(C(=O)N[C@H](Cc2c[nH]c3ccccc23)C(=O)Nc2ccncc2)CC1 (stereo partly shown) [Compound 5, reference compound]	–	–	–	≤10^d μM	–	–	TcCYP51 cellular activity (Y/N) ([3]; affects ergosterol biosynthesis at 5.0 μM): Y (5.0 μM)
CN1CCN(C(=O)N[C@@H](Cc2ccccc2)C(=O)N[C@@H](CCc2ccccc2)CCS(=O)(=O)c2ccccc2)CC1 [Compound 6]	–	> 2000	> 50000	>10 µM	> 10000	no significant change in lipid composition	TcCYP51 cellular activity (Y/N) [3, 11]: N (2.0 μM); competition for labeling of the ≈35 kDa band by probe 9 [4, 13]: did not compete for labeling by 9
Cc1ccc(C[C@H](NC(=O)c2ccccn2)C(=O)N[C@@H](CCc2ccccc2)CCS(=O)(=O)c2ccccc2)cc1 [Compound 7]	–	> 2000	> 50000	>10 µM	> 10000	no significant change in lipid composition	TcCYP51 cellular activity (Y/N) [3, 14]: N (0.1 μM)
Cc1ccc(C[C@H](NC(=O)c2ccncc2)C(=O)N[C@H](C)c2ccccc2)cc1 [Compound 13]	–	75 ± 26	> 50000	–	3900	–	T. cruzi growth inhibition MTC ([1]; read at day 12 following 7 days treatment): 1^f μM
CC[C@@H]([C@H](C)O)n1ncn(-c2ccc(N3CCN(c4ccc(OC[C@@H]5CO[C@@](Cn6cncn6)(c6ccc(F)cc6F)C5)cc4)CC3)cc2)c1=O [POSA, posaconazole, reference compound]	–	–	–	0.003 µM	2700	increase in the relative abundance of TcCYP51 substrates lanosterol (f) and eburicol (h)	TcCYP51 cellular activity (Y/N) [3, 14]: Y (0.1 μM)

Further lines, with some results ahead:

kinact/KI (cruzain) [M⁻¹ s⁻¹]	Kd (TcCYP51) [nM]	IC50 (cruzain) [nM]	Compound	T. cruzi growth inhibition MTC [1, 10]	EC90 [2] [nM]	effect on sterol (lipid) composition of intracellular T. cruzi [3]	other results
120000	–	–	O=C(N[C@@H](Cc1ccccc1)C(=O)N[C@H](/C=C/S(=O)(=O)c1ccccc1)CCc1ccccc1)c1ccccn1 [Compound 2]	10 µM	–	–	–
16000	> 2000	–	Cc1ccc(C[C@H](NC(=O)c2ccccn2)C(=O)N[C@H](/C=C/S(=O)(=O)c2ccccc2)CCc2ccccc2)cc1.O=C(O)C(F)(F)F [Compound 3]	8 µM	1850	no significant change in lipid composition	TcCYP51 cellular activity (Y/N) [3, 11]: N (2.0 μM); competition for labeling of the ≈35 kDa band by probe 9 [4, 12]: successfully blocked labeling
67300	≤ 5	–	Cc1ccc(C[C@H](NC(=O)c2ccncc2)C(=O)N[C@H](/C=C/S(=O)(=O)c2ccccc2)CCc2ccccc2)cc1 [Compound 4, N-[(2S)-1-[[(E,3S)-1-(benzenesulfonyl)-5-phenylpent-1-en-3-yl]amino]-3-(4-methylphenyl)-1-oxopropan-2-yl]pyridine-4-carboxamide]	0.6 µM	100	effects very similar to those observed in posaconazole treated parasites	IC50 (CYP1A2): 22000 nM; mechanism of CYP3A4 inhibition (CYP3A4 [5]; NADPH-dependent shift of IC50): reversible inhibition; IC50 (CYP3A4 [5]; pre-incubation with NADPH): 117 nM; IC50 (CYP3A4 [5]; pre-incubation without NADPH): 46 nM; IC50 (CYP2C19 [6]): 3400 nM; IC50 (CYP2D6): 2700 nM; TcCYP51 cellular activity (Y/N) ([3]; affects ergosterol biosynthesis at 0.2 μM): Y (0.2 μM); IC50 (CYP2C9): 5500 nM; fold more potent than 1 in the MTC assay ([1]; relative to compound 1): about 10 fold; mechanism of CYP2C19 inhibition (CYP2C19 [7]; NADPH-dependent shift of IC50): reversible inhibitors; IC50 (CYP2C19 [7]; pre-incubation with NADPH): 300 nM; IC50 (CYP2C19 [7]; pre-incubation without NADPH): 170 nM; competition for labeling of the ≈35 kDa band by probe 9 [4, 12]: successfully blocked labeling; IC50 (CYP3A4 [8]): 800 nM; IC50 [9]: ~7000 nM
–	≤ 5	> 50000	Cc1ccc(C[C@H](NC(=O)c2ccncc2)C(=O)N[C@@H](CCc2ccccc2)CCS(=O)(=O)c2ccccc2)cc1 [Compound 8]	0.25 µM	110	effects very similar to those observed in posaconazole treated parasites	TcCYP51 cellular activity (Y/N) [3, 14]: Y (0.1 μM); times more potent than 4 in the MTC assay ([1]; relative to compound 4): 2–4 times; competition for labeling of the ≈35 kDa band by probe 9 [4, 13]: did not compete for labeling by 9
81500	–	–	C#CCN1CCN(C(=O)N[C@@H](Cc2ccccc2)C(=O)N[C@H](/C=C/S(=O)(=O)c2ccccc2)CCc2ccccc2)CC1 [Compound 9]	–	17	–	T. cruzi growth inhibition MTC ([1]; performed in BESM host cell rather than J774 cells): 5^e μM
–	620 ± 260	> 50000	CNC(=O)[C@H](Cc1ccc(C)cc1)NC(=O)c1ccncc1 [Compound 12]	>10 µM	> 10000	–	antitrypanosomal effect ([1]; highest concentration examined (10 μM)): no antitrypanosomal effect
